Experimental data published in US9243036B2, “Anti-microbial activity of synthetic peptides” (THE UNITED STATES OF AMERICA, as represented by the …, priority 2012, dated 2016).
≈ marks a conversion by molar mass, not a printed value. Like-named read-outs stand apart in the source and are kept apart here. Residues, ends and D or L forms follow the SMILES beside them.

Key:
Assay type in all cases: cell-based
[1] = test system: K pneumoniae
Description: (§1) In vitro anti-bacterial activity of EC5. The test microorganisms mentioned earlier in the experimental procedures were used to evaluate the bactericidal activity of EC5 peptide. The minimum inhibitory concentrations (MICs) of the peptide were determined by standard dilution assay as recommended by Clinical and Laboratory Standard Institutes (CLSI) guidelines (Azad, M. A., et al., (2011) Antimicrob. Agents Chemother. 55, 2137-2145). Bacteria were grown to mid-logarithmic phase in cation-supplemented Mueller-Hinton broth (MHB) (Becton Dickinson, Sparks, Md.) on an orbital shaker (37° C.) and diluted to a 0.5 McFarland standard to a final volume of 1 ml. Decreasing concentrations of the peptide were incubated with the microorganisms. Results were recorded by visual inspection after 24 h of incubation at 37° C. Assay was repeated three separate times to ensure reproducibility. […] EC5 concentrations 0x, 0.5x, 1x, and 2×MIC were incubated with logarithmic phase of bacteria of approximately 10^5 CFU/ml in an orbital shaker for 48 h at 37° C. Samples were drawn and plated on NA plates. Polymyxin B was used as a positive control and peptide with no anti-bacterial activity from our previous studies was used as a negative control.

[2] = test system: E. coli
Description: as §1

[3] = test system: P. aeruginosa
Description: as §1

CC[C@H](C)[C@H](NC(=O)[C@H](CCCCN)NC(=O)[C@H](CCCNC(=N)N)NC(=O)[C@H](Cc1ccccc1)NC(=O)[C@H](CC(C)C)NC(=O)[C@H](CC(C)C)NC(=O)[C@@H](N)CCCNC(=N)N)C(=O)N[C@@H](CCCNC(=N)N)C(=O)N[C@@H](CCCNC(=N)N)C(=O)N[C@@H](CC(C)C)C(=O)N[C@@H](CCCCN)C(=O)N[C@@H](CCCNC(=N)N)C(=O)O [EC5, RLLFRKIRRLKR] (H-RLLFRKIRRLKR-OH; N-terminus and C-terminus assumed)
MIC [1]: 64 to 128 µg/mL
MIC [2]: 8 µg/mL (≈ 4.83 µM)
Minimum Bactericidal Concentration (MBC) [2]: 8 µg/mL
MIC [3]: 16 to 32 µg/mL
Minimum Bactericidal Concentration (MBC) [3]: 8 µg/mL
MIC ([3]; P. aeruginosa ATCC 27853): 8 µg/mL (≈ 4.83 µM)
MIC ([3]; P. aeruginosa, strain not named): 8 µg/mL (≈ 4.83 µM)
